Test systems include ACHN renal; CCRF-CEM leukemia; DU-145 prostate; HS 578T breast; K-562 leukemia; MCF7 breast; MOLT-4 leukemia; T-47D breast; UACC-257 melanoma; UACC-62 melanoma.
Holding throughout (assay): NCI anticancer screen, dose series, 48 h

The structures appear in SMILES notation. Where “and” joins values, the source holds several entries; their conditions need not be identical. Equal values may be shown once.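 Compound exposure: 48 hours, 5 concentrations, 96-well plates. At the GI50, growth is halved. TGI is the concentration that stops growth completely.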 Bounds are passed on as bounds.

Take `CN(Cc1cnc2nc(N)nc(N)c2n1)c1ccc(C(=O)N[C@@H](CCS(=O)(=O)O)C(=O)O)cc1`: the TGI in the assay with ACHN renal, in the assay on CCRF-CEM leukemia, in the assay on DU-145 prostate, in the assay with HS 578T breast, in the assay on K-562 leukemia and in the assay with MCF7 breast was > 100 µM each time. Further, the TGI in the assay on MOLT-4 leukemia, in the assay with T-47D breast, with UACC-257 melanoma and with UACC-62 melanoma was > 100 µM in each case. Moreover, the GI50 in the assay on DU-145 prostate is 1.31 µM.
As for `COc1c2occc2c(N)c2ccc(=O)oc12`, the TGI in the assay on ACHN renal, with CCRF-CEM leukemia, in the assay on DU-145 prostate, in the assay on HS 578T breast, in the assay with K-562 leukemia and in the assay on MCF7 breast was > 100 µM each time. Further, the TGI with MOLT-4 leukemia, with T-47D breast, in the assay with UACC-257 melanoma and in the assay on UACC-62 melanoma was > 100 µM throughout.
Regarding `CSC[C@H](NC(=O)COc1cccc2cnccc12)C(=O)NC(Cc1ccccc1)C(O)C(=O)N1CSC[C@H]1C(=O)NC(C)(C)C` (stereo not given in full), the TGI in the assay with ACHN renal was 84.9 µM; with CCRF-CEM leukemia, > 100 µM; in the assay with DU-145 prostate, > 100 µM; in the assay on HS 578T breast, > 100 µM; with K-562 leukemia, > 100 µM; in the assay with MCF7 breast, > 100 µM. Also, the TGI in the assay with MOLT-4 leukemia, in the assay with T-47D breast, with UACC-257 melanoma and in the assay with UACC-62 melanoma was > 100 µM in each case.
As for `COc1ccc2c(=O)oc3c(OC)cc(CCN(C)C)c4c(=O)oc1c2c34`, the GI50 was 14.8 µM and 5.71 µM in the assay on ACHN renal; 19.7 µM and 3.31 µM with UACC-257 melanoma. For the same molecule, the TGI is 28.1 µM and 11.8 µM with ACHN renal; 3.5 µM and 3.06 µM in the assay on CCRF-CEM leukemia; 15.8 µM in the assay on DU-145 prostate; 24 µM in the assay on HS 578T breast; 5.4 µM in the assay on K-562 leukemia; 12.9 µM with MCF7 breast. For the same molecule, the TGI with MOLT-4 leukemia was 26.8 µM and 17.1 µM; with T-47D breast, 18 µM; in the assay on UACC-257 melanoma, 38.7 µM and 10.3 µM; in the assay with UACC-62 melanoma it was 31.7 µM and 16.6 µM.
Regarding `O=C(Nc1ncc(Cc2cccc(C(F)(F)F)c2)s1)c1ccc2c(c1)OCCO2`, the GI50 is 0.58 µM with ACHN renal; 0.411 µM in the assay on CCRF-CEM leukemia; 0.35 µM in the assay with DU-145 prostate; 0.306 µM with HS 578T breast; 0.159 µM in the assay on K-562 leukemia; 0.175 µM with MCF7 breast. For the same molecule, the GI50 with MOLT-4 leukemia was 0.67 µM; in the assay with T-47D breast, 0.606 µM; in the assay on UACC-257 melanoma, 5.87 µM; in the assay on UACC-62 melanoma it was 0.372 µM. Also, the TGI with ACHN renal was > 100 µM; in the assay on CCRF-CEM leukemia, > 100 µM; in the assay on DU-145 prostate it was 14.8 µM; with HS 578T breast it was > 66.4 µM; in the assay with K-562 leukemia, > 100 µM; in the assay with MCF7 breast, > 100 µM. Further, the TGI in the assay on MOLT-4 leukemia, in the assay with T-47D breast, with UACC-257 melanoma and with UACC-62 melanoma was > 100 µM in each case.
Take `O=c1cccc(C#CC#C[C@@H]2O[C@H]2CO)o1`: the GI50 is 0.845 µM with ACHN renal; 0.192 µM in the assay with CCRF-CEM leukemia; 2.42 µM in the assay on DU-145 prostate; 5.18 µM with HS 578T breast; 1.49 µM in the assay with K-562 leukemia; 0.525 µM in the assay with MCF7 breast. Further, the GI50 with MOLT-4 leukemia was 0.33 µM; with T-47D breast, 1.33 µM; with UACC-257 melanoma, 2.17 µM; with UACC-62 melanoma, 0.477 µM. The TGI in the assay with ACHN renal is 2.08 µM; with DU-145 prostate, 5.97 µM; in the assay on HS 578T breast it was 24.5 µM; in the assay on K-562 leukemia, > 100 µM; with MCF7 breast, 1.36 µM; in the assay on MOLT-4 leukemia it was > 100 µM. Moreover, the TGI in the assay with T-47D breast was 3.32 µM; in the assay on UACC-257 melanoma, 4.52 µM; in the assay with UACC-62 melanoma, 1.1 µM.
On to `Nc1nc(Cl)nc2c1ncn2C1CC(O)C(CO)O1` (stereo not given), for which the GI50 in the assay on ACHN renal is 0.562 µM; in the assay with DU-145 prostate, 1.81 µM; in the assay with HS 578T breast, > 100 µM; in the assay on T-47D breast it was 5.75 µM. In addition, the TGI is > 100 µM in the assay with ACHN renal; 11.5 µM in the assay with CCRF-CEM leukemia; > 100 µM with DU-145 prostate; > 100 µM in the assay on HS 578T breast; > 100 µM in the assay with K-562 leukemia; > 100 µM with MCF7 breast. For the same molecule, the TGI was > 79.3 µM in the assay on MOLT-4 leukemia, > 100 µM with T-47D breast, 40.4 µM with UACC-257 melanoma and 6.15 µM in the assay with UACC-62 melanoma.
With `CCCCNCCCNCCCNC(=O)c1csc(-c2csc(CCNC(=O)C(NC(=O)C(C)C(O)C(C)NC(=O)C(NC(=O)c3nc(C(CC(N)=O)NCC(N)C(N)=O)nc(N)c3C)C(OC3OC(CO)C(O)C(O)C3OC3OC(CO)C(O)C(OC(N)=O)C3O)c3cnc[nH]3)C(C)O)n2)n1` (stereo not given), the GI50 in the assay on ACHN renal was 0.0491 µM; with CCRF-CEM leukemia, 6.4 µM; in the assay on K-562 leukemia it was 19.6 µM; in the assay with MOLT-4 leukemia it was 1.22 µM; in the assay on UACC-257 melanoma, 0.106 µM; with UACC-62 melanoma, 0.68 µM. The TGI with CCRF-CEM leukemia is 50 µM and > 100 µM; in the assay on DU-145 prostate it was 50 µM; in the assay on HS 578T breast, 50 µM; in the assay on K-562 leukemia, 50 µM and > 100 µM; in the assay on MCF7 breast, 37.7 µM; in the assay on MOLT-4 leukemia it was 50 µM and > 27.1 µM. For the same molecule, the TGI with T-47D breast was 50 µM; with UACC-62 melanoma it was 11.8 µM and 4.8 µM.
With `Cc1cccc(NC2=C(Cl)C(=O)c3nc(C)ccc3C2=O)c1`, the GI50 is 1.24 µM in the assay on ACHN renal; 2.29 µM in the assay on CCRF-CEM leukemia; 1.27 µM with DU-145 prostate; 1.68 µM in the assay with HS 578T breast; 0.45 µM in the assay with K-562 leukemia; 0.656 µM in the assay with MCF7 breast. The GI50 in the assay on MOLT-4 leukemia was 2.2 µM; with T-47D breast, 1.65 µM; with UACC-257 melanoma, 1.63 µM; in the assay with UACC-62 melanoma, 1.13 µM. In addition, the TGI is 2.53 µM in the assay with ACHN renal; > 100 µM in the assay with CCRF-CEM leukemia; 2.55 µM in the assay with DU-145 prostate; 4.58 µM with HS 578T breast; > 100 µM in the assay with K-562 leukemia; 3.06 µM with MCF7 breast. The TGI is > 100 µM in the assay with MOLT-4 leukemia, 4.29 µM with T-47D breast, 3.12 µM in the assay with UACC-257 melanoma and 2.49 µM with UACC-62 melanoma.
